Consider four substances from patent US20040224358A1, “Method for discovering one or more peptides adapted for specific binding to a microorganism of interest” (priority 2002, published 2004).

The subject of experiment [1] is lipopolysaccharides from Salmonella. Description: Dot blot binding of membrane-absorbed peptides to FITC-LPS from Salmonella. The note with it: 0-20 μg peptide on PVDF membrane, FIG. 1(b). As for the experimental part: (§1) Varying amounts of each peptide (ranging from 0-20 μg in 5 μg increments) were absorbed at a flow rate of approximately 0.15 ml/min. The membrane was blocked with 3% gelatin in TBS for 30 minutes at room temperature with gentle agitation and then was washed three times with TBS. Isolated, fluorescently-labeled lipopolysaccharides (FITC-LPS) from E.coli and Salmonella (Sigma Chemical Co.) were diluted in TBS to a final concentration of […] and were then bound to the membrane at room temperature with gentle agitation. The membrane was then washed three times with TBS and imaged on a Storm 860 (Molecular Dynamics, Sunnyvale, Calif.) in blue fluorescence mode.

In experiment [2] the test system is lipopolysaccharides from E.coli. Nature of the experiment: Dot blot binding of membrane-absorbed peptides to FITC-LPS from E.coli. To be noted: 0-20 μg peptide on PVDF membrane, FIG. 1(a). As for the experimental part:
as §1

Experiment [3] deals with E.coli 0157: H7 cells. Nature of the experiment: Whole-cell binding of E.coli to immobilized Cys-Cecropin P1 (HRP antibody/TMB, absorbance 650 nm). Also on record: species or system E coli serotype 0157: H7 (non-pathogenic). The note with it: immobilized peptide, E.coli 0157: H7 whole cells, FIG. 2. The procedure: The binding of cecropin P1 to whole E.colicells was tested as follows: Preparation of whole bacterial cells—E coli serotype 0157: H7 (non-pathogenic) cells from a frozen stock were grown overnight in Luria Broth Base (Life Technologies, Inc., Paisely, Scotland). The bacterial cells were collected by centrifugation at 9000×g for 5 min. The cell pellet was washed 2 times with PBS pH 7.2 and collected each time by centrifugation. The washed cell pellet was resuspended in PBS pH 7.2 to a final volume equivalent to the original culture volume. Optical density of the cell suspension was detected on a Beckmann DU840 spectrophotometer at an absorbance of 540 nm. An absorbance of 4.5 is approximately 3.5×10^9 cfu/ml.
Peptide immobilization—Cys-Cecropin P1 (a modified cecropin p1 prepared by solid phase peptide synthesis wherein cysteine is added to the C-terminus of cecropin p1) was diluted into PBS pH 6.5, 1 mM EDTA, 0.0001 mM DTT (Sigma Chemical Co., St. Louis, Mo.) for immobilization onto sulfhydryl-bind strip wells (Corning Inc., Corning, N.Y.). […]
Detection and color development—E.coli 0157: H7 cells (prepared as above) were added to each well containing immobilized cys-cecropin p1 (described as above). […] Absorbance was then measured on a Thermomax microplate reader (Molecular Devices, Sunnyvale, Calif.) at 650 nm.

Turning to Indolicidin, the “binding to lipopolysaccharides from Salmonella” value (from here on “binding … from Salmonella”) in experiment [1] is “did bind”. The “binding to lipopolysaccharides from E. coli” value (from here on “binding … from E. coli”) in experiment [2] is recorded as “did bind”.
In the case of Buforin I, the “binding … from Salmonella” value in experiment [1] is listed as “did not bind”. In addition, the “binding … from E. coli” value in experiment [2] is recorded as “did not bind”.
Consider “Cecropin P1 (SWLSKTAKKLENSAKKRISEGIAIAIQGGPR; Cecropin-P1; UniProt P14661 14-44, looked up)”, for which the “binding … from Salmonella” value in experiment [1] is on record as “did bind”. For the same substance, the “saturation of whole-cell binding occurs at a concentration of” value in experiment [3] lay within 45 to 50 µg. Further, the “binding … from E. coli” value in experiment [2] is recorded as “did bind”.
As to PGQ, the “binding … from Salmonella” value in experiment [1] is given as “did bind”. The “binding … from E. coli” value in experiment [2] is given as “did bind”.
